# Test results published in patent US20240150293A1, “SPIROCYCLOHEXANE DERIVATIVES, PHARMACEUTICAL COMPOSITIONS CONTAINING THEM AND THEIR USES AS ANTI-APOPTOTIC INHIBITORS” (LES LABORATOIRES SERVIER, priority 2021, published 2024).
# Read-outs that look alike come from different tables or passages of the source.
# Legend:
# [1] = biological target: Cy5-labelled Mcl1 (amino acids 171-321) C286S protein (UniProtKB Q07820) (Homo sapiens (Human), UniProt Q07820, C286S); test: Inhibition of Mcl-1 by the fluorescence quenching assay (Example A, Method B); type: binding
# Sequence of Cy5-labelled Mcl1 (amino acids 171-321) C286S protein (Q07820 171-321 C286S): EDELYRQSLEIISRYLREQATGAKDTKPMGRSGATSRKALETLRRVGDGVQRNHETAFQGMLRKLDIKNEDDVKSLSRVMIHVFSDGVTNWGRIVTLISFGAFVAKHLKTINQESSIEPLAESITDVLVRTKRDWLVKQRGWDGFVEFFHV
# Procedure, shortened: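 Eleven-point compound series incubated 2 h at room temperature with 1 nM Cy5-tagged protein and quencher-labelled PUMA peptide at 10, 20 or 400 nM in HEPES/NaCl/Tween 20, pH 7.4, 5% DMSO. IC50 for 50% fluorescence increase by 4-parameter fit, then Ki derived (complete cKi or estimated eKi).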
# [2] = system: H929 multiple myeloma tumor line; test: In vitro cytotoxicity, MTT assay (Example B, Method A); type: cell-based; conditions: H929 cells, 48 hours exposure, read-out: C50
# Description: The cytotoxicity studies were carried out on the H929 multiple myeloma tumor line.
# The cells are distributed onto microplates and exposed to the test compounds for 48 hours. The cell viability is then quantified by a colorimetric assay, the Microculture Tetrazolium Assay (Carmichael et al, Cancer Res. 1987, 47, 939-942).
# The results are expressed in C50 which means concentration corresponding to […] of effect/inhibition.
SMILES,Ki [1] [nM],"IC50 ([2]; Homo sapiens, NCI-H929, 48 h) [nM]",IC50 [2] [nM]
"C[C@@H](COc1ccnc2c1C(OC(F)F)CCC2)C[C@H]1Cc2ccccc2[C@]12CC[C@@](Nc1cccc(Cl)c1)(C(=O)O)CC2 (stereo partly drawn) [Example 691, (1r,2′S,4S)-4-(3-chloroanilino)-2′-[(2R)-3-{[5-(difluoromethoxy)-5,6,7,8-tetrahydroquinolin-4-yl]oxy}-2-methylpropyl]-2′,3′-dihydrospiro[cyclohexane-1,1′-indene]-4-carboxylic acid]",10.9,806,
"C[C@@H](COc1ccnc2c1[C@H](C)CC[C@H]2O)C[C@H]1Cc2cc(F)ccc2[C@]12CC[C@@](Nc1cccc(Cl)c1)(C(=O)O)CC2 [Example 771, (1r,2′S,4S)-4-(3-chloroanilino)-5′-fluoro-2′-[(2R)-3-{[(5R,8R)-8-hydroxy-5-methyl-5,6,7,8-tetrahydroquinolin-4-yl]oxy}-2-methylpropyl]-2′,3′-dihydrospiro[cyclohexane-1,1′-indene]-4-carboxylic acid]",0.176,18.3,
"CC1CCc2nccc(OC[C@H](C)CC3=Cc4ccccc4[C@]34CC[C@@](Nc3cccc(Cl)c3)(C(=O)O)CC4)c21 (single isomer, unassigned) [Example 629]",9.55,,880
"C[C@@H]1Cc2nccc(OC[C@H](C)C[C@H]3Cc4ccccc4[C@]34CC[C@@](Nc3cccc(Cl)c3)(C(=O)O)CC4)c2[C@H](C)C1 [Example 665, (1r,2′S,4S)-4-(3-chloroanilino)-2′-[(2R)-3-{[(5R,7S)-5,7-dimethyl-5,6,7,8-tetrahydroquinolin-4-yl]oxy}-2-methylpropyl]-2′,3′-dihydrospiro[cyclohexane-1,1′-indene]-4-carboxylic acid]",3.01,276,
"C[C@@H](COc1ccnc2c1[C@@H](C)CCC2)C[C@H]1Cc2ccccc2[C@]12CC[C@@](Nc1cccc(Cl)c1)(C(=O)O)CC2 [Example 654, (1r,2′S,4S)-4-(3-chloroanilino)-2′-[(2R)-2-methyl-3-{[(5S)-5-methyl-5,6,7,8-tetrahydroquinolin-4-yl]oxy}propyl]-2′,3′-dihydrospiro[cyclohexane-1,1′-indene]-4-carboxylic acid]",5.2,765,
"C[C@@H](COc1ccnc2c1[C@H](C)CC[C@@H]2F)C[C@H]1Cc2ccccc2[C@]12CC[C@@](Nc1cccc(Cl)c1)(C(=O)O)CC2 [Example 688, (1r,2′S,4S)-4-(3-chloroanilino)-2′-[(2R)-3-{[(5S,8R)-8-fluoro-5-methyl-5,6,7,8-tetrahydroquinolin-4-yl]oxy}-2-methylpropyl]-2′,3′-dihydrospiro[cyclohexane-1,1′-indene]-4-carboxylic acid]",0.965,234,
"C[C@@H](COc1ccnc2c1[C@@H](C)CC[C@H]2C)C[C@H]1Cc2ccccc2[C@]12CC[C@@](Nc1cccc(Cl)c1)(C(=O)O)CC2 (single isomer, unassigned) [Example 658, (1r,2′S,4S)-4-(3-chloroanilino)-2′-[(2R)-3-{[(5R*,8S*)-5,8-dimethyl-5,6,7,8-tetrahydroquinolin-4-yl]oxy}-2-methylpropyl]-2′,3′-dihydrospiro[cyclohexane-1,1′-indene]-4-carboxylic acid]",34.2,879,
"C[C@@H](COc1ncnc2c1[C@H](C)CC2)CC1Cc2ccccc2[C@]12CC[C@@](Nc1cccc(Cl)c1)(C(=O)O)CC2 (stereo partly drawn) [Example 597, (1r,4R)-4-(3-chloroanilino)-2′-[(2R)-2-methyl-3-{[(5R)-5-methyl-6,7-dihydro-5H-cyclopenta[d]pyrimidin-4-yl]oxy}propyl]-2′,3′-dihydrospiro[cyclohexane-1,1′-indene]-4-carboxylic acid]",5.36,1310,
"Cc1cc2c(cc1C)[C@]1(CC[C@@](Nc3cccc(Cl)c3)(C(=O)O)CC1)[C@H](C[C@@H](C)COc1ccnc3c1[C@H](C)CCC3)C2 [Example 855, (1r,2′R,4R)-4-(3-chloroanilino)-5′,6′-dimethyl-2′-[(2R)-2-methyl-3-{[(5R)-5-methyl-5,6,7,8-tetrahydroquinolin-4-yl]oxy}propyl]-2′,3′-dihydrospiro[cyclohexane-1,1′-indene]-4-carboxylic acid]",0.703,50.8,
"CC(=O)c1cc2c(cc1F)C=C(C[C@@H](C)COc1ccnc3c1[C@@H](C)CCC3)[C@]21CC[C@](Nc2cccc(Cl)c2)(C(=O)O)CC1 [Example 873, (1r,4R)-6′-acetyl-4-(3-chloroanilino)-5′-fluoro-2′-[(2R)-2-methyl-3-{[(5S)-5-methyl-5,6,7,8-tetrahydroquinolin-4-yl]oxy}propyl]spiro[cyclohexane-1,1′-indene]-4-carboxylic acid]",4.17,341,
"CC[C@@H]1CCc2nccc(OC[C@H](C)C[C@H]3Cc4ccccc4[C@]34CC[C@@](Nc3cccc(Cl)c3)(C(=O)O)CC4)c21 [Example 612, (1r,2′S,4S)-4-(3-chloroanilino)-2′-[(2R)-3-{[(5R)-5-ethyl-6,7-dihydro-5H-cyclopenta[b]pyridin-4-yl]oxy}-2-methylpropyl]-2′,3′-dihydrospiro[cyclohexane-1,1′-indene]-4-carboxylic acid]",0.565,315,
"O=C(O)[C@]1(Nc2cccc(Cl)c2)CC[C@@]2(CC1)c1ccccc1CC2CC(COc1ccccc1)COc1ccnc2ccsc12 (stereo partly shown) [Example 501, (1r,4r)-4-(3-chloroanilino)-2′-{2-(phenoxymethyl)-3-[(thieno[3,2-b]pyridin-7-yl)oxy]propyl}-2′,3′-dihydrospiro[cyclohexane-1,1′-indene]-4-carboxylic acid]",4.8,431,
"C[C@H]1Cc2nccc(OC[C@H](C)C[C@H]3Cc4ccccc4[C@]34CC[C@@](Nc3cccc(Cl)c3)(C(=O)O)CC4)c2[C@@H](C)C1 [Example 664, (1r,2′S,4S)-4-(3-chloroanilino)-2′-[(2R)-3-{[(5S,7R)-5,7-dimethyl-5,6,7,8-tetrahydroquinolin-4-yl]oxy}-2-methylpropyl]-2′,3′-dihydrospiro[cyclohexane-1,1′-indene]-4-carboxylic acid]",52.5,3030,
"C[C@@H](COc1ccnc2c1[C@H](C)CCC2)C[C@@H]1Cc2ccc(F)cc2[C@]12CC[C@@](Nc1cccc(Cl)c1)(C(=O)O)CC2 [Example 766, (1r,2′R,4R)-4-(3-chloroanilino)-6′-fluoro-2′-[(2R)-2-methyl-3-{[(5R)-5-methyl-5,6,7,8-tetrahydroquinolin-4-yl]oxy}propyl]-2′,3′-dihydrospiro[cyclohexane-1,1′-indene]-4-carboxylic acid]",2.3,384,
"C[C@H]1Cc2nccc(OC[C@H](C)C[C@H]3Cc4ccccc4[C@]34CC[C@@](Nc3cccc(Cl)c3)(C(=O)O)CC4)c2[C@H](C)C1 [Example 667, (1r,2′S,4S)-4-(3-chloroanilino)-2′-[(2R)-3-{[(5R,7R)-5,7-dimethyl-5,6,7,8-tetrahydroquinolin-4-yl]oxy}-2-methylpropyl]-2′,3′-dihydrospiro[cyclohexane-1,1′-indene]-4-carboxylic acid]",4.05,574,
"O=C(O)[C@]1(Nc2cccc(Cl)c2)CC[C@]2(CC1)C(CC(F)COc1ccnc3c1CCCC3)=Cc1ccccc12 (single isomer, unassigned) [Example 506, (1r,4r)-4-(3-chloroanilino)-2′-{2-fluoro-3-[(5,6,7,8-tetrahydroquinolin-4-yl)oxy]propyl}spiro[cyclohexane-1,1′-indene]-4-carboxylic acid]",49.2,,2790
"C[C@@H](COc1ccnc2c1[C@H](C)CCC2)C[C@H]1Cc2ccccc2[C@]12CC[C@](C(=O)O)(N1CCc3c(Cl)cccc31)CC2 [Example 713, (1r,2′S,4S)-4-(4-chloro-2,3-dihydro-1H-indol-1-yl)-2′-[(2R)-2-methyl-3-{[(5R)-5-methyl-5,6,7,8-tetrahydroquinolin-4-yl]oxy}propyl]-2′,3′-dihydrospiro[cyclohexane-1,1′-indene]-4-carboxylic acid]",3.23,152,
"O=C(O)[C@]1(Nc2cccc(Cl)c2)CC[C@@]2(CC1)c1ccccc1C[C@@H]2C[C@H](COc1ccnc2ccsc12)c1ccccc1 [Example 547, (1r,2′S,4S)-4-(3-chloroanilino)-2′-{(2S)-2-phenyl-3-[(thieno[3,2-b]pyridin-7-yl)oxy]propyl}-2′,3′-dihydrospiro[cyclohexane-1,1′-indene]-4-carboxylic acid]",6.95,376,
"C[C@@H](COc1ccnc2c1[C@@H](C)CCC2)C[C@H]1Cc2cccc(F)c2[C@]12CC[C@@](Nc1cccc(Cl)c1)(C(=O)O)CC2 [Example 762, (1r,2′S,4S)-4-(3-chloroanilino)-7′-fluoro-2′-[(2R)-2-methyl-3-{[(5S)-5-methyl-5,6,7,8-tetrahydroquinolin-4-yl]oxy}propyl]-2′,3′-dihydrospiro[cyclohexane-1,1′-indene]-4-carboxylic acid]",12.1,390,
"C[C@@H](COc1ncnc2c1[C@H](C)CCC2)C[C@H]1Cc2ccccc2[C@]12CC[C@@](Nc1cccc(Cl)c1)(C(=O)O)CC2 [Example 638, (1r,2′S,4S)-4-(3-chloroanilino)-2′-[(2R)-2-methyl-3-{[(5R)-5-methyl-5,6,7,8-tetrahydroquinazolin-4-yl]oxy}propyl]-2′,3′-dihydrospiro[cyclohexane-1,1′-indene]-4-carboxylic acid]",3.76,373,
